Read-outs that look alike come from different tables or passages of the source.
Test system: M. mycetomatis genome strain MM55
Assay: CLSI M38-A2 based in vitro susceptibility screening (XTT or resazurin), growth at fixed concentration
Format: cell-based, Madurella mycetomatis
Conditions: Madurella mycetomatis; for Percent fungal survival at 100 µM: read-out: Percentage survival at 100um, 100 uM A (second replicate column)
[1] = mean of three replicates, read-out: Percentage survival at 25um, 25 uM mean
[2] = replicate A, read-out: Percentage survival at 25um, 25 um A
[3] = replicate B, read-out: Percentage survival at 25um, 25 uM B
[4] = replicate C, read-out: Percentage survival at 25um, 25 uM C
[5] = first replicate column, read-out: Percentage survival at 100um, 100 uM A
[6] = mean of three replicates, read-out: Percentage survival at 100um, 100 uM mean
[7] = second replicate column, read-out: Percentage survival at 100um, 100 uM A
[8] = third replicate column, read-out: Percentage survival at 100um, 100 uM A
[9] = mean of replicates, read-out: Percentage survival at 25um, 25 uM mean
[10] = mean of replicates, read-out: Percentage survival at 100um, 100 uM mean
[11] = replicate 1, read-out: Percentage survival at 100um, 100 uM A (first replicate column)
[12] = replicate 3, read-out: Percentage survival at 100um, 100 uM A (third replicate column)
[13] = mean of replicates, MM55, read-out: Percentage survival at 25um, 25 uM mean
[14] = replicate A, MM55, read-out: Percentage survival at 25um, 25 um A
[15] = replicate B, MM55, read-out: Percentage survival at 25um, 25 uM B
[16] = replicate C, MM55, read-out: Percentage survival at 25um, 25 uM C
[17] = mean of replicates, MM55, read-out: Percentage survival at 100um, 100 uM mean
[18] = replicate 1, MM55, read-out: Percentage survival at 100um, 100 uM A
[19] = replicate 2, MM55, read-out: Percentage survival at 100um, 100 uM A
[20] = replicate 3, MM55, read-out: Percentage survival at 100um, 100 uM A

SMILES: CC(C)N(c1cc(-c2ccccc2)sc1C(=O)O)C(=O)[C@H]1CC[C@H](C)CC1 [MMV1634388]
- activity at 25 µM [1]: 90%
- activity at 25 µM [2]: 89.7%
- activity at 25 µM [3]: 99.2%
- activity at 25 µM [4]: 81.2%
- activity at 100 µM [5]: 83.3%
- activity at 100 µM [6]: 76.1%
- activity at 100 µM [7]: 68.1%
- activity at 100 µM [8]: 77%

SMILES: Nc1nc(C(F)(F)F)cc2c1[nH]c(=O)n2Cc1ccccc1 [MMV1634389]
- activity at 25 µM [9]: 83.5%
- activity at 25 µM [2]: 74.5%
- activity at 25 µM [3]: 96.8%
- activity at 25 µM [4]: 79.4%
- activity at 100 µM [10]: 61.6%
- activity at 100 µM [11]: 36.1%
- Percent fungal survival at 100 µM (replicate 2): 67.1%
- activity at 100 µM [12]: 81.6%

SMILES: CCNC(=O)Nc1cc2c(-c3ccnc(C)c3)ccc(CNC(=O)OC)c2cn1 [MMV1634390]
- activity at 25 µM (mean of three, M. mycetomatis MM55, read-out: Percentage survival at 25um, 25 uM mean): 86.2%
- activity at 25 µM (replicate A, M. mycetomatis MM55, read-out: Percentage survival at 25um, 25 um A): 98.4%
- activity at 25 µM (replicate B, M. mycetomatis MM55, read-out: Percentage survival at 25um, 25 uM B): 81%
- activity at 25 µM (replicate C, M. mycetomatis MM55, read-out: Percentage survival at 25um, 25 uM C): 79.2%
- activity at 100 µM (mean of three, M. mycetomatis MM55, read-out: Percentage survival at 100um, 100 uM mean): 52.4%
- activity at 100 µM (replicate 1, M. mycetomatis MM55, read-out: Percentage survival at 100um, 100 uM A (first replicate column)): 60.4%
- Percent fungal survival at 100 µM (replicate 2, M. mycetomatis MM55): 7.35%
- activity at 100 µM (replicate 3, M. mycetomatis MM55, read-out: Percentage survival at 100um, 100 uM A (third replicate column)): 89.5%

SMILES: Cn1cc(NC(=O)c2cc(NC(=O)c3ccc(/C=C/c4cnc5ccccc5c4)cc3)cn2C)cc1C(=O)NCCN1CCOCC1 [MMV1634391]
- activity at 25 µM [9]: 73.9%
- activity at 25 µM [2]: 63.4%
- activity at 25 µM [3]: 79.1%
- activity at 25 µM [4]: 79.2%
- activity at 100 µM [10]: 60.7%
- activity at 100 µM (replicate 1, read-out: Percentage survival at 100um, 100 uM A): 61%
- activity at 100 µM (replicate 2, read-out: Percentage survival at 100um, 100 uM A): 53.1%
- activity at 100 µM (replicate 3, read-out: Percentage survival at 100um, 100 uM A): 68%

SMILES: CCCCc1ccc(-c2nc(C)c(C(=O)OC)s2)cc1 [MMV1634392]
- activity at 25 µM [13]: 77.2%
- activity at 25 µM [14]: 84.6%
- activity at 25 µM [15]: 81.9%
- activity at 25 µM [16]: 65.1%
- activity at 100 µM [17]: 65.3%
- activity at 100 µM [18]: 48.8%
- activity at 100 µM [19]: 54.8%
- activity at 100 µM [20]: 92.3%

SMILES: CC(C)(C)c1ccc(C(Cn2cccc(C(F)(F)F)c2=O)NC2Cc3ccccc3C2)cc1 (stereo not shown) [MMV1634393]
- activity at 25 µM [13]: 62.5%
- activity at 25 µM [14]: 51.3%
- activity at 25 µM [15]: 64.6%
- activity at 25 µM [16]: 71.7%
- activity at 100 µM [17]: 66.7%
- activity at 100 µM [18]: 63.7%
- activity at 100 µM [19]: 74.2%
- activity at 100 µM [20]: 62.2%

SMILES: Cc1ccc(N2CCC(CCOc3ccc(S(C)(=O)=O)cc3)CC2)nn1 [MMV1634394]
- activity at 25 µM [1]: 86.9%
- activity at 25 µM [2]: 79.1%
- activity at 25 µM [3]: 80.9%
- activity at 25 µM [4]: 101%
- activity at 100 µM [5]: 52.8%
- activity at 100 µM [6]: 63.9%
- activity at 100 µM [7]: 75.2%
- activity at 100 µM [8]: 63.7%

SMILES: CCc1c(OCC2CCC2)c2cc(F)ccc2[nH]c1=O [MMV1634395]
- activity at 25 µM [1]: 67.1%
- activity at 25 µM [2]: 59.4%
- activity at 25 µM [3]: 71.5%
- activity at 25 µM [4]: 70.4%
- activity at 100 µM [5]: 62.9%
- activity at 100 µM [6]: 55.6%
- activity at 100 µM [7]: 45.1%
- activity at 100 µM [8]: 58.8%

SMILES: O=C(c1nc2c(C(F)(F)F)cc(C3CC3)cn2c1Cl)N1CCN([C@H]2CC[C@H](O)CC2)C(=O)C1 [MMV1634396]
- activity at 25 µM [1]: 94.9%
- activity at 25 µM [2]: 99.5%
- activity at 25 µM [3]: 104%
- activity at 25 µM [4]: 81.4%
- activity at 100 µM [5]: 92.3%
- activity at 100 µM [6]: 86.8%
- activity at 100 µM [7]: 90.6%
- activity at 100 µM [8]: 77.4%

SMILES: COc1ccc(CNC(=O)C2CCN([C@H](C)c3cccc4ccccc34)CC2)cc1 [MMV1634397]
- activity at 25 µM [13]: 45.7%
- activity at 25 µM [14]: 62.4%
- activity at 25 µM [15]: 66.9%
- activity at 25 µM [16]: 7.76%
- activity at 100 µM [17]: 4.13%
- activity at 100 µM [18]: 3.82%
- activity at 100 µM [19]: -0.868%
- activity at 100 µM [20]: 9.43%

SMILES: CCOc1ccc(/C=N/NC(=O)C2CC2c2ccc(C(C)(C)C)cc2)cc1OCC (stereo not shown) [MMV1634398]
- activity at 25 µM [9]: 85.9%
- activity at 25 µM [2]: 88.3%
- activity at 25 µM [3]: 97.5%
- activity at 25 µM [4]: 72%
- activity at 100 µM [10]: 81.1%
- activity at 100 µM [11]: 88.5%
- Percent fungal survival at 100 µM (replicate 2): 87.7%
- activity at 100 µM [12]: 67.1%

— PMC8815882, “Screening the pandemic response box identified benzimidazole carbamates, Olorofim and ravuconazole as promising drug candidates for the treatment of eumycetoma” (PLoS Neglected Tropical Diseases, 2022)
